# Data as given in patent US20220196636A1, “GRID OF RESPONSES INDICATING DRUG SENSITIVITY” (The Johns Hopkins University, priority 2019, published 2022).
# Columns and labels:
# Assay type in all cases: cell-based, human
# hiPSC-CM monolayers [1] = test: GRIDS assay (pace-capture and spontaneous activity by optical mapping), monolayers
# Experimental: (§1) Each EHS was placed in Tyrode's solution and stained with 10 μM di-4-ANEPPS for 10 min at 37° C. The EHS was rinsed several times in a dish with warm Tyrode's solution, and then immersed in Tyrode's solution containing 10 μM blebbistatin to suppress contraction. The dish was placed on a 37° C. heated stage for the duration of the experiment. At least 5 min after adding blebbistatin, the EHS was stimulated with a point electrode and optically mapped using a CMOS camera (MiCAM Ultima-L, SciMedia). The EHS was paced by 5 ms monophasic rectangular pulses at stepwise increasing rates starting at 0.5 Hz. For some samples, E-4031, chromanol 293B, nifedipine, Bay K 8644, BaCl2, or cromakalim was added for 7 min prior to mapping. Mapping data were analyzed using custom MATLAB scripts (details provided in Supplemental Information). AP durations at 30% and 80% repolarization (APD30 and APD80) were calculated from the optical voltage signal. For drug studies, APD and conduction velocity (CV) measurements at each concentration were plotted as a percentage of APD and CV measured at baseline, with no drug present.
# (§2) To test the responsiveness of EHS to ion channel modulators, an assay referred to herein as “GRIDS” (grid of responses indicating drug sensitivity) was developed that characterizes the ability of a cardiac preparation to respond to pacing when exposed to a range of drug concentrations. This assay was used to compare EHS to age-matched monolayer cultures. APs of EHS and monolayers were evaluated at each drug concentration in the absence of pacing and when subjected to electrical stimulation at PCLs ranging from 2000 ms to 500 ms. By incorporating a range of pacing rates, GRIDS manifests the distinct sensitivities of different ion currents (Ravens and Wettwer, 1998) and their rate dependencies, and provides a “fingerprint” of drug sensitivity. Several types of responses were observed: no spontaneous activity (FIG. 6A,i), spontaneously generated APs when no pacing was applied (FIG. 6A,ii), extra APs in between pacing stimuli (FIG. 6A, iii), one AP generated for each pacing stimulus—i.e., 1:1 pace-capture (FIG. 6A, iv), and failure to maintain 1:1 pace-capture (lost beats) (FIG. 6A,v).
# (§3) EHS were stained with 10 μM of the voltage-sensitive dye di-4-ANEPPS (Sigma-Aldrich Corp.) in Tyrode's solution for 10 minutes at 37° C. Afterwards, EHS were rinsed twice with Tyrode's and placed in a 35-mm dish filled with Tyrode's and 10 μM of the contraction inhibitor blebbistatin (Sigma-Aldrich Corp.). This dish was set on a stage heated to 37° C. and allowed to equilibrate for at least 5 minutes. Samples were point paced with at least 30 stimulus pulses at a range of cycle lengths, starting from 2000 ms and decreasing until the they lost capture. EHS were optically mapped during pacing using a 100×100 pixel CMOS camera (MiCAM Ultima-L, SciMedia, Costa Mesa, Calif.).
# (§4) During drug studies, recordings at a range of pacing rates were taken at baseline (prior to the addition of drug) before replacing the solution in the dish with Tyrode's supplemented with blebbistatin and the lowest dose of drug studied. The sample was paced at the same range of rates and mapped 7 minutes after the addition of drug. Afterwards, the bath solution was replaced with Tyrode's with blebbistatin and the next lowest drug dose and the procedure repeated. This method was applied for all doses of each drug and, except where noted in the figures, only one drug was tested per sample. In these studies, we superfused EHS or monolayers with the following drugs: E-4031 (Tocris Bioscience), BaCl2 (Sigma-Aldrich Corp.), Chromanol 293B (Tocris Bioscience), Nifedipine (Tocris Bioscience), Bay K 8644 (Tocris Bioscience), and Cromakalim (Sigma-Aldrich Corp.).
# (§5) Optical mapping data was analyzed using custom MATLAB scripts. […]
# [2] = tested on: engineered heart slices (EHS) of hiPSC-CMs; test: GRIDS assay (pace-capture and spontaneous activity by optical mapping), EHS
# Experimental: as §1, §2, §3, §4, §5
# hiPSC-CM monolayers [3] = test: Optical mapping of action potential duration and conduction velocity, monolayers
# Experimental: as §1, §3, §4
# (§6) Optical mapping data was analyzed using custom MATLAB scripts. Recordings at each pixel were de-noised using a previously described method (Little and Jones, 2010) to regulate total signal variance and convolved with a 5×5 spatial Gaussian filter. Activation times were defined as the maximum of the derivative of membrane potential (dV/dt), which was calculated as previously described (Chartrand, 2011). Histograms of local conduction velocities for each EHS were fitted to a Gaussian curve and the mean of the curve was defined as the average conduction velocity (CV). To determine longitudinal and transverse CVs, a bimodal Gaussian curve was fitted to the local CVs. Action potential durations at 30 and 80 percent repolarization (APD30 and APD80) were determined for all local traces over the recording region for each EHS and fit with Gaussian curves to determine the mean value for each EHS, as described for CV measurements. For drug studies, average APD and CV measurements for each dose were normalized by average APD and CV measurements at baseline (without the drug).
# [4] = tested on: engineered heart slices (EHS) of hiPSC-CMs; test: Optical mapping of action potential duration and conduction velocity, EHS; settings: for change in APD80 compared to baseline, d201 EHS / change in conduction velocity compared to baseline, d201 EHS: paced at 1900 ms, n=4
# Experimental: as §1, §3, §4, §6
# monolayers of hiPSC-CMs = test: GRIDS analysis applied to video-based contraction data, monolayers; settings: n=6
# Experimental: GRIDS analysis was applied to contraction data collected from monolayers of hiPSC-CMs. Each monolayer (cultured on a plastic coverslip) was placed in a 35-mm dish filled with cell culture medium and set on the stage of a microscope (LS720, Etaluma) fitted within a cell culture incubator. Monolayers were superfused with increasing concentrations of E-4031 (FIG. 15) or isoproterenol (FIG. 16), ranging from 0 to 10 μM, and paced at decreasing cycle lengths (increasing rates), ranging from 2000 ms to 500 ms, using a field electrode. At each drug dose and paced cycle length, a 30-second video of the contracting cells was recorded at a rate of 20-30 frames per second. The cellular contraction was quantified by subtracting one reference frame of video from all other frames, summing the pixels in each frame after subtraction, plotting the summed signal over time, and detecting the peaks in the signal.
# [5] = tested on: engineered heart slices (EHS) of hiPSC-CMs; test: Contraction measurements of EHS (change in EHS area during pacing)
# Experimental: WT d24-78 EHS were placed in a 35-mm tissue culture mm dish filled with Tyrode's solution and maintained at 31±0.1° C. for the duration of the experiment. A section of each EHS was detached from the edge of the coverslip so that it could move freely. Each EHS was paced at 1 Hz, 1.5 Hz, and 2 Hz while the free region was imaged with a CCD camera. A custom MATLAB script was used to segment the image and calculate the change in EHS area over time, which was used as a measure of contraction.
# Tyrode's solution was prepared by combining 1.8 mM CaCl2, 5 mM glucose, 5 mM HEPES, 1 mM MgCl2, 5.4 mM KCl, 135 mM NaCl, and 0.33 mM NaH2PO4 in ddH2O and adding NaOH to raise the pH to 7.4 (all chemicals from Sigma-Aldrich Corp.). EHS were placed in a 35-mm dish filled with Tyrode's solution and set on a stage heated to 31±0.1° C. (Warner Instruments, Hamden, Conn.). A section of each EHS was unhooked and allowed to move freely throughout the duration of the experiment. The EHS were allowed to equilibrate in Tyrode's for 5 minutes before the start of pacing with a point electrode. Each sample was paced for 1 minute at each of 3 cycle lengths (1000 ms, 666 ms, 500 ms), while the freely moving region was kept approximately vertical in the field of view and imaged at 4× magnification using a CCD camera (Swiftcam, Swift, Schertz, Tex.) at a rate of 14-17 fps with 320×256 pixel resolution. Samples also were imaged during pacing at 666 ms after the application of 1 μM isoproterenol (Sigma-Aldrich Corp.) for 2 minutes and after washout of the drug for 2 minutes. A pacing cycle length shorter than 1000 ms was applied in the presence of isoproterenol to overcome the increase in spontaneous rate in response to the drug. […] From this, the area of EHS was calculated in each image. The change in area from a fully relaxed state (reference frame, designated as 100% EHS area) was determined for each frame in the time series. […]
# [6] = chromanol 293B, all concentrations tested
# [7] = chromanol 293B 1 μM to 60 μM, PCL 1000 ms
# [8] = BaCl2 up to 150 μM, PCL 1000 ms, concentration-dependent
# [9] = additional 1 μM Bay K 8644 after 1 μM cromakalim
# [10] = E-4031 50 nM to 10 μM, PCL 1500 ms, concentration-dependent
structure (smiles),measurement,setting,value
CCS(=O)(=O)N(C)[C@H]1c2cc(C#N)ccc2OC(C)(C)[C@@H]1O (racemic) [chromanol 293B],"pace-capture (GRIDS), monolayers",hiPSC-CM monolayers [1]; [6],could be pace-captured at all PCLs from 2000 ms down to 500 ms
same,fraction of monolayers exhibiting spontaneous activity when no pacing was applied,"hiPSC-CM monolayers [1]; chromanol 293B, concentrations up to 60 μM","non-zero and constant at all concentrations except for 5 μM, when it was zero, and 60 μM, when all monolayers exhibited spontaneous activity"
same,"pace-capture (GRIDS), EHS",[2]; [6],could be pace-captured at all PCLs from 2000 ms down to 500 ms
same,"change in APD80, monolayers",hiPSC-CM monolayers [3]; [7],no effect
same,"change in CV, monolayers",hiPSC-CM monolayers [3]; [7],no effect
same,"change in APD80, EHS",[4]; [7],no effect
same,"change in CV, EHS",[4]; [7],no effect
[Ba+2].[Cl-].[Cl-] [BaCl2],"pace-capture (GRIDS), monolayers",hiPSC-CM monolayers [1]; 500 μM BaCl2,could be partially pace-captured only at CLs of 1000 ms and less
same,"spontaneous beating rate, monolayers",hiPSC-CM monolayers [1]; 500 μM BaCl2,up to 1 Hz
same,"pace-capture (GRIDS), monolayers",hiPSC-CM monolayers [1]; 1 mM BaCl2,only a small fraction could be partially pace-captured at a CL of 500 ms
same,"spontaneous beating rate, nearly all monolayers",hiPSC-CM monolayers [1]; 1 mM BaCl2,> 2 Hz
same,"spontaneous rate, monolayers","hiPSC-CM monolayers [1]; BaCl2, no pacing, effect greater in monolayers than in EHS",increased in a concentration-dependent manner
same,"pace-capture (GRIDS), EHS","[2]; 1 mM BaCl2, 500 ms PCL",all of the EHS tested lost capture
same,"sensitivity (GRIDS), EHS compared with monolayers",[2]; BaCl2,less sensitive to BaCl2 than monolayers
same,"spontaneous rate, EHS","[2]; BaCl2, no pacing",increased in a concentration-dependent manner
same,"pace-capture (GRIDS), EHS",[2]; all concentrations of BaCl2,could be overdrive paced at 700 ms and 1000 ms PCL for all concentrations
same,"change in APD80, monolayers",hiPSC-CM monolayers [3]; [8],increased APD80
same,"change in CV, monolayers","hiPSC-CM monolayers [3]; BaCl2 up to 150 μM, PCL 1000 ms, did not reach statistical significance",decreased CV
same,"change in APD80, EHS",[4]; [8],increased APD80
same,"change in CV, EHS","[4]; BaCl2 up to 150 μM, PCL 1000 ms, statistically significant",decreased CV
COC(=O)C1=C(C)NC(C)=C([N+](=O)[O-])C1c1ccccc1C(F)(F)F (centres unmarked) [Bay K 8644],"change in CV, EHS","[4]; Bay K 8644 0.3 μM to 100 μM, concentration-dependent, n=3",decreased CV
same,"change in APD, EHS","[4]; Bay K 8644 0.3 μM to 100 μM, paced at 700 ms, concentration-dependent, n=3",increased APD
same,"maximum capture rate, EHS","[4]; Bay K 8644, n=3",decreased the maximum capture rate
same,"change in APD80 compared to baseline, d201 EHS",[4]; [9],decreased APD80
same,"change in conduction velocity compared to baseline, d201 EHS",[4]; [9],slowed conduction velocity
Cc1cccc(CCN2CCC(C(=O)c3ccc(NS(C)(=O)=O)cc3)CC2)n1 [E-4031],"loss of capture during pacing (GRIDS), monolayers","hiPSC-CM monolayers [1]; E-4031 greater than 50 nM (tested 1 nM to 10 μM), increasingly shorter PCLs",a greater fraction of monolayers than EHS lost capture
same,"pace-capture from contraction video (GRIDS), monolayers","monolayers of hiPSC-CMs; E-4031 0 to 10 μM, PCL 2000 ms to 500 ms, more pronounced at higher doses",began to lose capture as the pacing rate was increased
same,"sensitivity of pace-capture (GRIDS), EHS compared with monolayers","[2]; E-4031 greater than 50 nM (tested 1 nM to 10 μM), rapid pacing",lower sensitivity of EHS to E-4031
same,"change in APD80, monolayers",hiPSC-CM monolayers [3]; [10],prolonged APD80
same,"change in CV, monolayers",hiPSC-CM monolayers [3]; [10],slowed CV
same,"change in APD80, EHS",[4]; [10],prolonged APD80
same,"change in CV, EHS",[4]; [10],slowed CV
CC1(C)Oc2ccc(C#N)cc2C(N2CCCC2=O)C1O (centres unmarked) [cromakalim],"change in APD80 compared to baseline, d201 EHS",[4]; 1 μM cromakalim,decreased APD80
same,"change in conduction velocity compared to baseline, d201 EHS",[4]; 1 μM cromakalim,slowed conduction velocity
CC(C)NCC(O)c1ccc(O)c(O)c1 (centres unmarked) [isoproterenol],area change during contraction relative to baseline,"[5]; 1 μM isoproterenol, PCL 666 ms (1.5 Hz), n=8",1.5±0.6 fold
same,inotropic response,[5]; EHS,positive inotropic response
same,area change during contraction relative to baseline after washout of the drug,"[5]; after washout of 1 μM isoproterenol, PCL 666 ms, n=8",1.1±0.4 times the baseline value
same,"spontaneous rate from contraction video (GRIDS), monolayers","monolayers of hiPSC-CMs; isoproterenol 0 to 10 μM, no pacing or 2000 ms pacing",increased the spontaneous rate of the monolayers in a dose-dependent manner
